Test results taken from patent US12138320B2, “Composition and methods for tumor imaging and treatment” (The University of Chicago, priority 2020, dated 2024).

Experiments:
[1] = tested on: MDA-MB231 human breast cancer xenografts; experiment: PET/CT imaging and ex vivo biodistribution in mice bearing MDA-MB231 xenografts; set-up: species or system mouse
Method: In vivo microPET/CT imaging: All imaging was performed by the Integrated Small Animal Imaging Research Resource (iSAIRR) at the University of Chicago (Chicago, Illinois, United States of America) on a β-Cube and X-Cube (Molecubes NV, Ghent, Belgium). Athymic nude mice (males and females, aged 6 to 8 weeks; HSD strain, Harlan-Envigo, Indianapolis, Indiana, United States of America) were anesthetized via inhalation with 1.5-2% isoflurane and injected with approximately 150 μCi (5.55 Megabecquerel (MBq)) of [^18F]JW199 in 150 μL of physiologic saline through the lateral tail vein, followed by awake incubation for 1 hour and 45 minutes. MicroCT images were acquired using the general purpose protocol, with energy of 50 KeV and a tube current of 100 μA. Respiration rate and body temperature of the animal were constantly monitored during the entire scanning period with the p-Cube and X-Cube onboard monitoring system. […]
Dynamic reconstruction was performed using a three-dimensional OSEM algorithm with 400 μm isometric voxel size. […] 3D regions of interest (ROIs) were drawn and standardized uptake values (SUVs) and percent injected dose per cubic centimeter of tissue (% ID/cc) were calculated for each ROI and time point. % ID/cc was calculated as a ratio of tissue radioactivity concentration (mCi/g) at time of scan to total injected activity (millicurie (mCi)) at time of scan. […]

[2] = tested on: other detected serine hydrolase targets; experiment: Family-wide gel-based profiling of serine hydrolases in MDA-MB231 and PC3 cells (selectivity); format: cell-based, human; settings: live cells
Method: Proteome Preparation: Human PC3 and MDA-MB231 cells were grown in Roswell Park Memorial Institute (RPMI) medium and Dulbecco's Modified Eagle Medium (DMEM), respectively, supplemented with 10% fetal bovine serum (FBS) and 2 mM L-glutamine, and cultured in a humidified 5% CO2 incubator at 37° C. Cells were washed twice with phosphate buffered saline (PBS, pH 7.5), collected by scraping, resuspended in 0.2 ml PBS, sonicated, and fractionated via centrifugation (100,000×g, 45 min) into a pellet (containing membrane proteins) and supernatant (containing soluble proteins). […] Protein concentrations were determined using a Bradford protein assay kit (Bio-Rad, Hercules, California, United States of America)). […]
Gel-based Activity Profiling: Cell lysates were treated with 1 μM fluorophosphonate-rhodamine (FP-rho) for 30 min at room temperature (50 μL total reaction volume). Reactions were quenched with one volume of standard 4× sodium dodecyl sulfate/polyacrylamide gel electrophoresis (SDS/PAGE) reducing sample buffer, resolved on 10% acrylamide SDS/PAGE gels, and visualized in-gel with a fluorescence scanner sold under the tradename CHEMIDOC™ MP (Bio-Rad, Hercules, California, United States of America). Densitometric quantification of band intensities were used to calculate the percent inhibition via JW199. […]

## CC(C)c1ccccc1OC(=O)NCCc1ccc(OCC[18F])cc1 [[^18F]JW199, fluorine-18-labeled 2-isopropylphenyl-(4-(2-fluoroethoxy)phenethyl)carbamate]
[1]; 150 μCi i.v., dynamic PET/CT
  radiotracer accumulation in tumor: radiotracer accumulation in breast tumor xenograft cells
[1]; ex vivo quantitation, 3 hours after injection, breast cancer model
  total radioactivity in bulk tumor tissue relative to surrounding muscle: higher total radioactivity
[2]
  selectivity over other detected serine hydrolase targets: greater than 1,000 fold
